Measurements from patent publication US6048874A, “Parenteral metolazone formulations” (priority 1999, dated 2000).
≈ marks a conversion by molar mass, not a printed value. Where “and” joins values, the source holds several entries; their conditions need not be identical. Identical values can stand only once.

Assays:
[1] = Apparent equilibrium solubility redetermined, HPLC analysis; format: physicochemical; settings: 65% w/v propylene glycol/15% w/v ethyl alcohol/water
Method: (§1) The apparent equilibrium solubility was redetermined more accurately as follows. A 300 g quantity of ethyl alcohol (95% v/v in water) and 1300 g of propylene glycol were added to a 2000 ml volumetric flask and mixed well. Next, purified water was added q.s. to 2000 ml. This is the solvent.
(§2) Nine 30 ml amber bottles were filled with 25 ml of the solvent and 400 mg of metolazone and mixed on a wrist arm shaker for 24 hours (3 bottles), 48 hours (3 bottles), and 72 hours (3 bottles). The samples were filtered through a membrane filter (Whatman 25 mm 601X Nylon Filter (0.45 μm)). The concentration of the samples was determined by HPLC and by UV analysis.
The sample concentrations were analyzed by an HPLC system (HP 1100, available from Hewlett-Packard, Palo Alto, Calif.) equipped with a C18 column and an UV detector set at 230 nm. The mobile phase consisted of water and methanol at a ratio of 62/38 (v/v) and was used at a flow rate of 1.5 ml/minute.

[2] = Apparent equilibrium solubility redetermined, UV analysis; format: physicochemical; settings: 65% w/v propylene glycol/15% w/v ethyl alcohol/water, UV 235 nm
Method: as §1, §2
The sample concentrations were measured by the UV absorbance at 235 nm using an UV/VIS spectrophotometer (HP 8453, available from Hewlett-Packard, Palo Alto, Calif.).

[3] = Apparent equilibrium solubility, spectrophotometric assay at 346 nm; format: physicochemical; settings: aqueous propylene glycol/ethanol, organic solvent or mixture
Method: The apparent equilibrium solubility of metolazone in an aqueous solvent of 65% w/v propylene glycol/15% w/v ethyl alcohol (95% v/v in water) was determined as described below.
A 250 mg quantity of metolazone was equilibrated with 20 ml of a solvent consisting of 65% w/v propylene glycol, 15% w/v ethyl alcohol (95% v/v in water), and water for 24 hours at room temperature on a wrist action shaker. […] After equilibration, the solution was filtered through a 0.45 μm filter, diluted, and assayed spectrophotometrically at 346 nm.

[4] = cited from earlier work
[5] = cited from earlier work; remark: listed apart in the source
[6] = diuretic; cited from earlier work
[7] = cited from earlier work; remark: listed apart in the source

solubility thermodynamic at 24 h ([1]; aqueous propylene glycol/ethanol, organic solvent or mixture, shaken 24 hrs, read-out: Concentration of Metolazone, HPLC (apparent equilibrium solubility)): 7900 µg/mL (≈ 21.6 mM)
solubility thermodynamic at 48 h ([1]; aqueous propylene glycol/ethanol, organic solvent or mixture, shaken 48 hrs, read-out: Concentration of Metolazone, HPLC (apparent equilibrium solubility)): 7810 µg/mL (≈ 21.3 mM)
solubility thermodynamic at 72 h ([1]; aqueous propylene glycol/ethanol, organic solvent or mixture, shaken 72 hrs, read-out: Concentration of Metolazone, HPLC (apparent equilibrium solubility)): 7610 µg/mL (≈ 20.8 mM)
Concentration of Metolazone, HPLC (apparent equilibrium solubility) ([1]; shaken 24 hrs, 1440 min): 7730 µg/mL and 7650 µg/mL
Concentration of Metolazone, HPLC (apparent equilibrium solubility) ([1]; shaken 48 hrs, 2880 min): 7680 µg/mL and 7660 µg/mL
Concentration of Metolazone, HPLC (apparent equilibrium solubility) ([1]; shaken 72 hrs, 4320 min): 7680 µg/mL and 7910 µg/mL
solubility thermodynamic at 24 h ([2]; aqueous propylene glycol/ethanol, organic solvent or mixture, shaken 24 hrs, read-out: Concentration of Metolazone, UV (apparent equilibrium solubility)): 8090 µg/mL (≈ 22.1 mM)
solubility thermodynamic at 48 h ([2]; aqueous propylene glycol/ethanol, organic solvent or mixture, shaken 48 hrs, read-out: Concentration of Metolazone, UV (apparent equilibrium solubility)): 7580 µg/mL (≈ 20.7 mM)
solubility thermodynamic at 72 h ([2]; aqueous propylene glycol/ethanol, organic solvent or mixture, shaken 72 hrs, read-out: Concentration of Metolazone, UV (apparent equilibrium solubility)): 7300 µg/mL (≈ 20 mM)
Concentration of Metolazone, UV (apparent equilibrium solubility) ([2]; shaken 24 hrs, 1440 min): 7540 µg/mL and 7410 µg/mL
Concentration of Metolazone, UV (apparent equilibrium solubility) ([2]; shaken 48 hrs, 2880 min): 7560 µg/mL and 7430 µg/mL
Concentration of Metolazone, UV (apparent equilibrium solubility) ([2]; shaken 72 hrs, 4320 min): 7310 µg/mL and 7550 µg/mL
solubility thermodynamic at 24 h ([3]; 65% w/v propylene glycol, 15% w/v ethyl alcohol (95% v/v in water), water, 24 hours, room temperature, spectrophotometric 346 nm): 8360 µg/mL (≈ 22.9 mM)
solubility thermodynamic ([3]; aqueous 65% w/v propylene glycol, 15% w/v ethyl alcohol, read-out: apparent equilibrium solubility limit): ~8000 µg/mL (≈ 21.9 mM)
Compound: Cc1ccccc1N1C(=O)c2cc(S(N)(=O)=O)c(Cl)cc2NC1C (stereo not shown) [Metolazone, 7-chloro-1,2,3,4-tetrahydro-2-methyl-3-(2-methylphenyl)-4-oxo-6-quinazolinesulfonamide]
pH of aqueous solution sufficient to solubilize metolazone ([4]; aqueous solution, alkali hydroxides): about 11
chemical stability at high pH ([4]; pH of about 11): chemically unstable
decomposition when exposed to light [5]: decompose when exposed to light
potency, on a weight basis, vs quinethazone or hydrochlorothiazide [6]: greater potency
solubility in water [7]: about 0.02 mg/ml
